Experiments:
[1] = test system: TNF-α secretion of keratinocytes which are treated with TPA; test: TNF-α secretion by TPA-treated immortalized human keratinocytes (ELISA of supernatant); type: cell-based; conditions: for % of the control: control: TPA without piperonal
Procedure: These keratinocytes (cf. WO97/23602) are treated in this connection with inflammation-promoting substances, more specifically with a known skin irritant in the form of a phorbol ester (12-O-tetradecanoylphorbol acetate, abbreviated to TPA), and as a response to this treatment they display a typical inflammatory metabolic reaction, in particular an increase in the secretion of the inflammation-promoting cytokine TNF-α (tumour necrosis factor alpha).
A substance which inhibits the secretion of TNF-α in the case of TPA-treated keratinocytes in the above model in a dose-dependent manner is regarded as a potentially anti-inflammatory substance.
(§1) Specifically, the test is carried out by subjecting in vitro human keratinocytes, immortalized in culture, to an inflammation-promoting treatment using the abovementioned 12-O-tetradecanoylphorbol 13-acetate (TPA). The immortalized keratinocyte cell lines used are the cell lines DK2, FK2 or else DK7, which are described in the published International Patent Application WO 97/23602. The cell lines FK2 and DK2 were deposited on 5 October 1995 in accordance with the Budapest Treaty at the DSM depository (Deutsche Sammlung für Mikroorganismen und Zellkulturen GmbH, Mascheroder Weg 1b, D-38124 Braunschweig, Germany) and were given the deposit names DSM ACC2240 and DSM ACC2238. The cell line DK7-NR was deposited on 19 March 1998 at the Pasteur Institute, Paris (CNCM) under the number
I-1996. It is also possible to use an immortalized keratinocyte line HaCaT, which is described by Boukamp et al. in J. Cell. Biol., 106, 761-771, 1988).
Petri dishes (6 cm diameter), which contain 4 ml of the serum-free nutrient medium NR-2 (cf. WO97/23602; Biofluids), were inoculated with the abovementioned immortalized keratinocyte cell lines. As soon as confluence of the cell lawn was observed, the nutrient medium was replaced by a fresh, calcium-enriched nutrient medium NR-2 (1.5 mM CaCl2). The dishes were incubated for 2 days, the nutrient medium was replaced by fresh nutrient medium and the dishes were incubated for a further 2 days. […] In parallel, an identical batch without piperonal additive was prepared.
(§2) During the last 24 h of the above mentioned incubation, TPA in ethanol or a corresponding amount of ethanol was added in an amount of 10 ng/ml. The supernatants were then isolated and, by means of a known ELISA assay (Ruwag AG, Zurich, Switzerland) using specific antibodies to TNF-α (BioSource Inter., US, catalogue numbers KHC0012 and KHC3013), the concentration of TNF-α in the supernatant was determined.

[2] = test system: keratinocytes; test: Cytotoxic activity on the keratinocytes; conditions: concentrations used in the experiments (0.01-0.1%)
[3] = test system: TNF-α secretion of keratinocytes; test: Control experiments without TPA: TNF-α secretion by immortalized human keratinocytes (ELISA of supernatant); type: cell-based
Procedure: as §1
Petri dishes (6 cm diameter), which contain 4 ml of the serum-free nutrient medium NR-2 (cf. WO97/23602; Biofluids), were inoculated with the abovementioned immortalized keratinocyte cell lines. As soon as confluence of the cell lawn was observed, the nutrient medium was replaced by a fresh, calcium-enriched nutrient medium NR-2 (1.5 mM CaCl2). The dishes were incubated for 2 days, the nutrient medium was replaced by fresh nutrient medium and the dishes were incubated for a further 2 days.
as §2

[4] = TPA + hydrocortisone (concentration not given)

| SMILES | Amount of TNF-α determined ([1]; TPA 10 ng/ml + hydrocortisone (concentration not given)) | % inhibition [1, 4] | % of the control [1, 4] | cytotoxic activity [2] | Amount of TNF-α determined ([3]; No TPA + 0.01% of piperonal) | Amount of TNF-α determined ([3]; No TPA + 0.05% of piperonal) | Amount of TNF-α determined ([3]; No TPA + 0.1% of piperonal) | Amount of TNF-α determined ([1]; TPA 10 ng/ml + 0.01% of piperonal) | Amount of TNF-α determined ([1]; TPA 10 ng/ml + 0.05% of piperonal) | Amount of TNF-α determined ([1]; TPA 10 ng/ml + 0.1% of piperonal) | % of the control ([1]; TPA + 0.01% of piperonal) | % inhibition ([1]; TPA + 0.05% of piperonal) | % of the control ([1]; TPA + 0.05% of piperonal) | % inhibition ([1]; TPA + 0.1% of piperonal) | % of the control ([1]; TPA + 0.1% of piperonal) |
| --- | --- | --- | --- | --- | --- | --- | --- | --- | --- | --- | --- | --- | --- | --- | --- |
| C[C@]12CCC(=O)C=C1CC[C@@H]1[C@@H]2[C@@H](O)C[C@@]2(C)[C@H]1CC[C@]2(O)C(=O)CO [hydrocortisone, reference compound] | 220.4 pg/mL | 26.4% | 73.6% | – | – | – | – | – | – | – | – | – | – | – | – |
| O=Cc1ccc2c(c1)OCO2 [piperonal, 3,4-(methylenedioxy)benzaldehyde] | – | – | – | does not exhibit cytotoxic activity | 7.9 pg/mL | 8.9 pg/mL | 6.3 pg/mL | 331.2 pg/mL | 78.1 pg/mL | 100.6 pg/mL | 110.6% | 73.9% | 26.1% | 66.4% | 33.6% |
